Assay results taken from patent US8940286B2, “Urate transporter, as well as method and kit for evaluating urate transport-related disease factor and inflammation-related disease factor, and test sample and drug” (The University of Tokyo, priority 2009, dated 2015).
Structures can show the parent of a compound that is named as a salt.

Experiments:
ABCG2 [1] = biological target: T1, ABCG2 (Homo sapiens, UniProt Q9UNQ0); details: typical ABCG2 substrates, low capacity; read-out: Km value of transport by ABCG2; cited from earlier work
T1 sequence (Q9UNQ0 1-655): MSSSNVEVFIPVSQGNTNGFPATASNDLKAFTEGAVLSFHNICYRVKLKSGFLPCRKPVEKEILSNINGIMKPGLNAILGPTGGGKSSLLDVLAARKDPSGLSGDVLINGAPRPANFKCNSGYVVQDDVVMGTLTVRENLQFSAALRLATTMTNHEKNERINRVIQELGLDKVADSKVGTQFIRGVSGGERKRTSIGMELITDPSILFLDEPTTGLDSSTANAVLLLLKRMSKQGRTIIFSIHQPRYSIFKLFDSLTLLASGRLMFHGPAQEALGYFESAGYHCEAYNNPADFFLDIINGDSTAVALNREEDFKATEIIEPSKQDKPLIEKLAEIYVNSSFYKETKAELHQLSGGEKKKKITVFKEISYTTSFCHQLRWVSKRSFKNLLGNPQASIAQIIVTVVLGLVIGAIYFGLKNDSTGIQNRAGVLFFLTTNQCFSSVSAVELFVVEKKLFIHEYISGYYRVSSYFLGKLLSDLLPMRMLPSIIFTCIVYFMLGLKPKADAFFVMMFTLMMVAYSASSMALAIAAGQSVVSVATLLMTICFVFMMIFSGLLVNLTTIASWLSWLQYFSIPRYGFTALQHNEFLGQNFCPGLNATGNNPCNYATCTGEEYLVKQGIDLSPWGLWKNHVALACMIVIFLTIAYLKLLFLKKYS

ABCG2 [2] = biological target: T1, ABCG2; assay: inhibition of ABCG2-mediated [3H]estrone-3-sulfate transport in membrane vesicles; details: [3H]ES 500 nM, vesicle transport assay, HEK293 membrane vesicles
Source text: Wild-type ABCG2 cDNA was inserted into the Nhe I site and Apa I site of pcDNA3.1(+) vector plasmid (Invitrogen, Carlsbad, Calif.), with a myc-tag sequence attached at the 5′ end. To prepare membrane vesicles, HEK293 cells were transiently transfected with an expression vector for ABCG2 or an empty vector using FuGENE6 (Roche Diagnostics, Indianapolis, Ind.). Forty-eight hours later, cells were harvested and the membrane vesicles were isolated using a standard method. The uptake study of [^3H]estrone-3-sulfate (ES, 500 nM) and [^14C]urate (28 μM) was performed.
Using membrane vesicles prepared from ABCG2-expressing cells, the inhibitory effect of urate on ABCG2-mediated transport of its typical substrate, ES (estrone-3-sulfate) was examined.
The inhibitory effect on the transport of [^3H]estrone-3-sulfate (ES, 500 nM), a typical substrate of ABCG2 was examined using the vesicle transport assay system.

mouse Abcg2 = biological target: T2, mouse Abcg2 (Mus musculus, UniProt Q7TMS5); assay: [14C]urate transport in mouse Abcg2-expressing membrane vesicles; type: biochemical; details: uric acid 250 μM to 4 mM, cell membrane vesicles
T2 construct: expressed in transfected cells; host or cells: HEK293 (transient transfection, myc-mAbcg2/pcDNA3.1(+)); cell membrane vesicles
T2 sequence (Q7TMS5 1-657): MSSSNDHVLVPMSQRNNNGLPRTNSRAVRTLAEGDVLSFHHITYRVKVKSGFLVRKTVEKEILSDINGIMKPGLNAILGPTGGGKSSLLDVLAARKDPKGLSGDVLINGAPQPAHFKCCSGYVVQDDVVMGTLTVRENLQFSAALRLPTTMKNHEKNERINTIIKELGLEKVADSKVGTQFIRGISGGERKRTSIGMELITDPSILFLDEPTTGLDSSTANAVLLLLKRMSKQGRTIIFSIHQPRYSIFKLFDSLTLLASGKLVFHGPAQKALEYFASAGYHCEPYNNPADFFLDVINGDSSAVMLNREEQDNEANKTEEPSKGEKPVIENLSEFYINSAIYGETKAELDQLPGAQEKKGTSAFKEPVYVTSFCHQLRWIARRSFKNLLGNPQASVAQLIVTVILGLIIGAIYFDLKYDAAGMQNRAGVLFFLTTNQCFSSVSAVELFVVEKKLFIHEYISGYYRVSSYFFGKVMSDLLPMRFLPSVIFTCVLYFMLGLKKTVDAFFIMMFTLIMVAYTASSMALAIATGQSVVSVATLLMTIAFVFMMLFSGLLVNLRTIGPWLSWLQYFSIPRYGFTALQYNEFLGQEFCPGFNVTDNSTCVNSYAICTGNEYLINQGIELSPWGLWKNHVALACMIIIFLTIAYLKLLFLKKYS
Source text: A mouse Abcg2 expression vector was constructed by amplifying a cDNA of mouse Abcg2 with a myc tag sequence attached to the N-terminus, integrating it into pGEM T-Easy Vector (Promega, Madison, Wis.), and then integrating it into a Not I site of a pcDNA3.1(+) vector via a restriction enzyme treatment.
Also, in order to confirm whether or not the mouse Abcg2 transports urate in the same manner as in human ABCG2, HEK293 cells into which the mouse myc-Abcg2 expression vector was transiently introduced were recovered, and cell membrane vesicles were prepared.
Transport experiments were performed using cell membrane vesicles and using radioisotope-labeled uric acid as a substrate. As a result, it was confirmed that the mouse Abcg2 also transports uric acid in the same manner as in human ABCG2. Also, transport experiments were performed in uric acid concentrations of 250 μM, 500 μM, 1 mM, 1.5 mM, 2 mM, and 4 mM, respectively. […] Whereby, it was shown that mouse Abcg2 is a high-capacity urate transporter which can function even in the presence of a high concentration of uric acid.

[3] = substrate: O=c1[nH]c(=O)c2[nH]c(=O)[nH]c2[nH]1; assay: ATP-dependent [14C]urate transport in ABCG2-expressing membrane vesicles; type: biochemical, human; details: other: membrane vesicles from ABCG2-expressing HEK293 cells
Protocol: As shown in FIG. 3 (A), an ATP-dependent urate transport was detected in ABCG2-expressing vesicles but not in control vesicles. This is the first evidence of a direct high-capacity urate transport via ABCG2. Because of a mild inhibitory effect on the ES transport, urate was assumed to be a high-capacity substrate of ABCG2. Indeed, as shown in FIG. 3 (B), ABCG2-mediated urate transport scarcely reached saturation at concentrations of 1 mM or less.
Typical ABCG2 substrates, e.g., sulfate conjugates such as ES, 4-methylumbelliferone sulfate, and E3040 sulfate, are transported by ABCG2 with low capacity (Km value of about 20 μM).

Row | Molecule | Km (ABCG2 [1]) | inhibitory effect on the transport of [3H]estrone-3-sulfate (ABCG2 [2]) | further results
1 | Cc1cc(=O)oc2cc(OS(=O)(=O)O)ccc12 [4-methylumbelliferone sulfate] | ~20 µM | – | –
2 | Cc1cn([C@H]2C[C@H](N=[N+]=[N-])[C@@H](CO)O2)c(=O)[nH]c1=O [AZT, 3′-azido-3′-deoxythymidine] | – | inhibition | –
3 | CNc1nc2c(Cc3cccnc3)c(C)c(OS(=O)(=O)O)c(C)c2s1 [E3040 sulfate] | ~20 µM | – | –
4 | C[C@]12CC[C@@H]3c4ccc(OS(=O)(=O)O)cc4CC[C@H]3[C@@H]1CCC2=O [ES, estrone-3-sulfate] | ~20 µM | inhibition | –
5 | O=c1[nH]c(=O)c2[nH]c(=O)[nH]c2[nH]1 [urate] | – | – | saturability of urate transport via mouse Abcg2 (mouse Abcg2): no saturability
6 | ABCG2 (Homo sapiens) (protein, expressed in transfected cells; host or cells: HEK293 (transient transfection, pcDNA3.1(+)); isolated membrane vesicles) MSSSNVEVFIPVSQGNTNGFPATASNDLKAFTEGAVLSFHNICYRVKLKSGFLPCRKPVEKEILSNINGIMKPGLNAILGPTGGGKSSLLDVLAARKDPSGLSGDVLINGAPRPANFKCNSGYVVQDDVVMGTLTVRENLQFSAALRLATTMTNHEKNERINRVIQELGLDKVADSKVGTQFIRGVSGGERKRTSIGMELITDPSILFLDEPTTGLDSSTANAVLLLLKRMSKQGRTIIFSIHQPRYSIFKLFDSLTLLASGRLMFHGPAQEALGYFESAGYHCEAYNNPADFFLDIINGDSTAVALNREEDFKATEIIEPSKQDKPLIEKLAEIYVNSSFYKETKAELHQLSGGEKKKKITVFKEISYTTSFCHQLRWVSKRSFKNLLGNPQASIAQIIVTVVLGLVIGAIYFGLKNDSTGIQNRAGVLFFLTTNQCFSSVSAVELFVVEKKLFIHEYISGYYRVSSYFLGKLLSDLLPMRMLPSIIFTCIVYFMLGLKPKADAFFVMMFTLMMVAYSASSMALAIAAGQSVVSVATLLMTICFVFMMIFSGLLVNLTTIASWLSWLQYFSIPRYGFTALQHNEFLGQNFCPGLNATGNNPCNYATCTGEEYLVKQGIDLSPWGLWKNHVALACMIVIFLTIAYLKLLFLKKYS | – | – | Km [3]: 8240 ± 1440 µM; Vmax [3]: 6.96 ± 0.89 nmol/min/mg (protein)
